Experiment: Solubility in water

| Structure (SMILES) | Solubility in water (% w/w) |
| --- | --- |
| CCCCC(OC)C(=O)N(C)C (stereo not shown) [Product 4] | <0.05 |
| CCCCC(OCC)C(=O)N(C)C (stereo not shown) [Product 5] | <0.05 |
| CCCC(OC)C(=O)N(C)C (stereo not shown) [Product 6] | <0.1 |
| CCCC(OCC)C(=O)N(C)C (stereo not shown) [Product 7] | <0.1 |

Reference: patent US8981150B2 (priority 2009, dated 2015)
